Test results: US9241928B2, “Antimicrobial compounds” (The General Hospital Corporation, priority 2009, dated 2016)

Experiments:
Assay type in all cases: in vivo, Caenorhabditis elegans
F35E12.5 = assay: qRT-PCR of immune response gene expression; details: 20 μg/mL versus DMSO
Description: (§1) Caenorhabditis elegans strains were maintained on Escherichia coli OP50 as described in Brenner, Genetics, 1974, 77:71-94. Wildtype N2 nematodes carrying integrated transgenes acIs219 (AU78), acIs101(AY101), agIs17(AU133), or agIs26 (AU185) (see (1) Shivers, et al., PLoS. Genet. 2010, 6: e1000892, (2) Bolz et al., J. Biol. Chem. 2010, 285:10832-40, (3) Estes et al., Proc. Natl. Acad. Sci., 2010, 107:2153-8, and (4) Irazoqui et al., Proc. Natl. Acad. Sci., 2008, 105:17469-74) were used to assay the immunomodulatory activity of candidate compounds. For qRT-PCR experiments, RNA was extracted from synchronized young adult nematodes exposed to a candidate compound or DMSO (as a control) using TRI Reagent and reverse transcribed using the Retroscript kit (Ambion). This cDNA was then subjected to qRT-PCR analysis using SYBR green detection on a CFX1000 machine (Bio-Rad, http://www.bio-rad.com). Primers for qRT-PCR were obtained from published sequences (see Irazoqui et al., Proc. Natl. Acad. Sci., 2008, 105:17469-74 and Troemel et al., PLoS Genet. 2006, 2:e183). […] Fold change was calculated using the Pfaffl method (see Pfaffl et al., Nucleic Acids Res., 2001, 29:e45).
(§2) By using the assay described above, the inventors identified five compounds (i.e., Compounds 11, 18, 20, 25, and 26) that robustly and reproducibly activated the immune GFP reporters (see FIG. 5 and Table 3) or activated selected immune response genes as determined by quantitative RT-PCR analysis (see Table 4). For the latter experiments, RNA was isolated from wild-type C. elegans N2 or pmk-1 mutant animals exposed to the candidate immunomodulatory compounds at 20 μg/mL and from animals exposed to DMSO. The inventors tested several immune response genes in compound-exposed animals that are known to be regulated by PMK-1, the p38 Mitogen Acitvated Protein kinase homolog, an evolutionary-conserved, central regulator of nematode immunity. The inventors also used qRT-PCR to measure the activation of several immune response genes that are known to be activated independently of PMK-1. […] Thus, without wishing to be bound by theory, it is believed that a subset of the compounds identified in the screen for novel anti-infective compounds directly stimulate the immune response of the nematode and that these compounds act both by directly stimulating the PMK-1 pathway and by unidentified parallel immune response pathways.

F56D6.2 = assay: qRT-PCR of immune response gene expression; details: 20 μg/mL versus DMSO
Description: as §1, §2

irg-1 = assay: qRT-PCR of immune response gene expression; details: 20 μg/mL versus DMSO
Description: as §1, §2

C17H12.8 = assay: qRT-PCR of immune response gene expression; details: 20 μg/mL versus DMSO
Description: as §1, §2

C49G7.5 = assay: qRT-PCR of immune response gene expression; details: 20 μg/mL versus DMSO
Description: as §1, §2

T24B8.5 = assay: qRT-PCR of immune response gene expression; details: 20 μg/mL versus DMSO
Description: as §1, §2

F53E10.4 = assay: qRT-PCR of immune response gene expression; details: 20 μg/mL versus DMSO
Description: as §1, §2

immune response genes = assay: qRT-PCR of immune response genes, PMK-1 dependence (overall); details: 20 μg/mL, N2 or pmk-1 mutant animals
Description: as §1
By using the assay described above, the inventors identified five compounds (i.e., Compounds 11, 18, 20, 25, and 26) that robustly and reproducibly activated the immune GFP reporters (see FIG. 5 and Table 3) or activated selected immune response genes as determined by quantitative RT-PCR analysis (see Table 4). For the latter experiments, RNA was isolated from wild-type C. elegans N2 or pmk-1 mutant animals exposed to the candidate immunomodulatory compounds at 20 μg/mL and from animals exposed to DMSO. The inventors tested several immune response genes in compound-exposed animals that are known to be regulated by PMK-1, the p38 Mitogen Acitvated Protein kinase homolog, an evolutionary-conserved, central regulator of nematode immunity. The inventors also used qRT-PCR to measure the activation of several immune response genes that are known to be activated independently of PMK-1. […]

F35E12.5::GFP = assay: Immune GFP reporter induction, transgene acIs101; details: compound-exposed versus DMSO-exposed animals, visual
Description: Caenorhabditis elegans strains were maintained on Escherichia coli OP50 as described in Brenner, Genetics, 1974, 77:71-94. Wildtype N2 nematodes carrying integrated transgenes acIs219 (AU78), acIs101(AY101), agIs17(AU133), or agIs26 (AU185) (see (1) Shivers, et al., PLoS. Genet. 2010, 6: e1000892, (2) Bolz et al., J. Biol. Chem. 2010, 285:10832-40, (3) Estes et al., Proc. Natl. Acad. Sci., 2010, 107:2153-8, and (4) Irazoqui et al., Proc. Natl. Acad. Sci., 2008, 105:17469-74) were used to assay the immunomodulatory activity of candidate compounds. […] Fold change was calculated using the Pfaffl method (see Pfaffl et al., Nucleic Acids Res., 2001, 29:e45).
Without wishing to be bound by theory, it was hypothesized that a subset of these compounds cured nematode infection by directly activating the innate immune response of the animal. […] First, the inventors studied four C. elegans strains in which the promoter of the nematode immune response genes T24B8.5, F35E12.5, irg-1 and clec-60 were individually fused to GFP, generating transgenes acIs219 (AU78), acIs101(AY101), agIs17(AU133), or agIs26 (AU185), respectively, thereby allowing a visual readout of gene activity in each strain. […]

T24B8.5::GFP = assay: Immune GFP reporter induction, transgene acIs219; details: compound-exposed versus DMSO-exposed animals, visual
Description: as §1
Without wishing to be bound by theory, it was hypothesized that a subset of these compounds cured nematode infection by directly activating the innate immune response of the animal. To test this hypothesis, a multi-faceted approach was used. First, the inventors studied four C. elegans strains in which the promoter of the nematode immune response genes T24B8.5, F35E12.5, irg-1 and clec-60 were individually fused to GFP, generating transgenes acIs219 (AU78), acIs101(AY101), agIs17(AU133), or agIs26 (AU185), respectively, thereby allowing a visual readout of gene activity in each strain. Using these reporter strains, the ability of 33 compounds previously shown to have anti-Enterococcal killing activity in the C. elegans infection assay (24 of which have been described above) were tested for their ability to modulate the nematode immune response.

Row | SMILES | F35E12.5 expression, average fold-change (F35E12.5; genotype N2) [fold-change] | F35E12.5 expression, average fold-change (F35E12.5; genotype pmk-1(km25)) [fold-change] | F56D6.2 expression, average fold-change (F56D6.2; genotype N2) [fold-change] | F56D6.2 expression, average fold-change (F56D6.2; genotype pmk-1(km25)) [fold-change] | irg-1 expression, average fold-change (irg-1; genotype N2) [fold-change] | irg-1 expression, average fold-change (irg-1; genotype pmk-1(km25)) [fold-change] | C17H12.8 expression, average fold-change (C17H12.8; genotype N2) [fold-change] | C17H12.8 expression, average fold-change (C17H12.8; genotype pmk-1(km25)) [fold-change] | C49G7.5 expression, average fold-change (C49G7.5; genotype N2) [fold-change] | C49G7.5 expression, average fold-change (C49G7.5; genotype pmk-1(km25)) [fold-change] | T24B8.5 expression, average fold-change (T24B8.5; genotype N2) [fold-change] | T24B8.5 expression, average fold-change (T24B8.5; genotype pmk-1(km25)) [fold-change] | F53E10.4 expression, average fold-change (F53E10.4; genotype N2) [fold-change] | F53E10.4 expression, average fold-change (F53E10.4; genotype pmk-1(km25)) [fold-change] | PMK-1 dependence of immune response gene activation (immune response genes) | immune reporter induction F35E12.5::GFP (F35E12.5::GFP) | immune reporter induction T24B8.5::GFP (T24B8.5::GFP)
1 | NNc1ccc2c(Cl)cc(Cl)c(O)c2n1 [Compound 11] | 20.23 | 6.7 | 15.1 | 1.4 | 1.7 | 4.7 | 18.0 | 1.1 | 0.9 | 2.5 | 57.0 | 3.2 | 1.0 | 1.7 | preferentially activated PMK-1-dependent immune response genes | + | +
2 | Cc1ccc(Nc2nc(N)c3ccccc3n2)cc1Cl [Compound 26] | 156.1 | 149.0 | 13.1 | 0.6 | 1.1 | 4.0 | 1.1 | 0.4 | 1.8 | 6.3 | 1.6 | 1.8 | 0.3 | 0.8 | activated at least one immune response gene in the nematode in a manner independent of PMK-1 | + | +
